Test results taken from patent US5270302A, “Derivatives of tetrapeptides as CCK agonists” (priority 1991, dated 1993).
Like-named read-outs stand apart in the source and are kept apart here. *1 amine or outer side, *2 acyl side, *3 side chain or, on linkers, in order; H or OH if unused. Where a SMILES comes first, the peptide text is derived from it. Side-chain parts run from the residue outwards. [ ]: non-standard residue; d: D form. The star is where a group is joined. 2Naphthoyl(6-OH) = O=C(c1ccc2cc(O)ccc2c1)*; Desaminotyrosyl = O=C(CCc1ccc(O)cc1)*; NH(1-naphthyl) = c1ccc2c(N*)cccc2c1; NMeF = CN[C@@H](Cc1ccccc1)C(=O)O; X11 = O=C(C=Cc1ccc(Cl)c(Cl)c1)*; NMeD = CN[C@@H](CC(=O)O)C(=O)O; NH(2-Me-phenyl) = Cc1ccccc1N*; X18 = O=C(/C=C/c1ccc(Cl)cc1)*; X14 = O=[N+]([O-])c1ccccc1N*; X8 = O=C(C=Cc1ccc(O)c(O)c1)*; X7 = Cc1ccc(/C=C/C(=O)*)cc1; X13 = O=C(C=Cc1ccc(F)cc1)*; X21 = O=C(C=Cc1cccc(O)c1)*; X1 = O=C(C=Cc1ccc(O)cc1)*; Boc = CC(C)(C)OC(=O)*; X24 = CC(C)c1ccccc1N*; CO = O=C([*:1])[*:2]; NHPh = c1ccc(N*)cc1; NHtBu = CC(C)(C)N*; X16 = COc1ccccc1N*; X19 = Brc1ccccc1N*

How the values were obtained:
Type-A CCK receptor = target: T1, Type-A CCK receptor (Cavia porcellus, UniProt Q63931); experiment: Radioligand binding of [125I]BH-CCK-8 in guinea pig pancreatic membrane preparations
T1 construct: Cortical and pancreatic membranes were prepared as described; from tissue; host or cells: guinea pig pancreas membranes
T1 sequence (Q63931 1-430): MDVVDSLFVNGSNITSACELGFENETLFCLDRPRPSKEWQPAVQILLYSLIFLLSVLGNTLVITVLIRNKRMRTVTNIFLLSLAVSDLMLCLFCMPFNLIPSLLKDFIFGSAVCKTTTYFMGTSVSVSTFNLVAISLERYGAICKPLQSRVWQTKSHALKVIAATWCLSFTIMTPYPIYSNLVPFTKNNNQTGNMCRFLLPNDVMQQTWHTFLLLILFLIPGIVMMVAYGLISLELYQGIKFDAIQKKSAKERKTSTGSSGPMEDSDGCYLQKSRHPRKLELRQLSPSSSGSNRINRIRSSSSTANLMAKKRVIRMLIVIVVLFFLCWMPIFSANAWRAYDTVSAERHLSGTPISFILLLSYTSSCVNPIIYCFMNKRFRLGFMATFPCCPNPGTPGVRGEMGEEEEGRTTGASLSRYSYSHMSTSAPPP
Excerpt: (§1) CCK-8 [Asp-Tyr(SO3 H)-Met-Gly-Trp-Met-Asp-PheNH2 ], bestatin and phosphoramidion were purchased from Peptide International (Louisville, Ky.). EGTA (ethylene glycol-bis-(β-aminoethyl) N,N,N',N'-tetraacetic acid), HEPES (4-(2-hydroxyethyl)-1-piperazine-enthanesulfonic acid) and BSA (bovine serum albumin) were purchased from Sigma Chemical Co. (St. Louis, Mo.). [^125 I]-Bolton-Hunteer (BH-CCK-8) (specific activity, 2200 Ci/mmol) was obtained from New England Nuclear (Boston, Mass.). Male guinea pigs, 250 to 325 g, were obtained from Scientific Small Animal Laboratory and Farm (Arlington Heights, Ill.). Collagenase, code CLSPA was purchased from Worthington (Frehold, N.J.).
(§2) Protocol For Radioligand Binding Experiments in Guinea Pig Cerebral Cortical and Pancreatic Membrane Preparations
(§3) Cortical and pancreatic membranes were prepared as described (Lin and Miller; J. Pharmacol. Exp. Ther. 1985, 232:775-780,). In brief, cortex and pancreas were removed and rinsed with ice-cold saline. Visible fat and connective tissues were removed from the pancreas. […] The homogenates were entrifuged for 10 minutes at 1075×g and pellets were discarded. The supernatants were saved and centrifuged at 38,730×g for 20 minutes. The resultant pellets were rehomogenized in 25 mL of 50 mM Tris-HCl buffer with a Teflon-glass homogenizer, 5 up and down strokes. The homogenates were centrifuged again at 38,730×g for 20 minutes. Pellets werre then resuspended in 20 mM HEPES, containing 1 mM EGTA, 118 mM NaCl, 4.7 mM KCl, 5 mM MgCl2, 100 μM bestatin, 3 μM phosphoramidon, pH 7.4 at 22° C. with a Teflon-glass homogenizer, 15 up and down strokes. Resuspension volume for the cortex was 15-18 mL per gram of original wet weight and 60 mL per gram for the pancreas.
(§4) [^125 I]Bolton-Hunter CCK-8 and test compounds were diluted with HEPES-EGTA-salt buffer (see above) containing 0.5% BSA. To 1 mL Skatron polystyrene tubes were added 25 μL of test compounds, 25 μL of [^125 I]BH-CCK-8 and 200 μL of membrane suspension. The final BSA concentration was 0.1%. The cortical tissues were incubated at 30° C. for 150 minutes and pancreatic tissues were incubated at 37° C. for 150 min. Incubations were terminated by filtration using Skatron Cell Harvester and SS32 microfiber filter mats. […] IC50 s were determined from the Hill analysis.

Type-B CCK receptor = target: T2, Type-B CCK receptor (Cavia porcellus, UniProt H0VZC5); experiment: Radioligand binding of [125I]BH-CCK-8 in guinea pig cerebral cortical membrane preparations
T2 construct: Cortical and pancreatic membranes were prepared as described; from tissue; host or cells: guinea pig cerebral cortex membranes
T2 sequence (H0VZC5 1-426): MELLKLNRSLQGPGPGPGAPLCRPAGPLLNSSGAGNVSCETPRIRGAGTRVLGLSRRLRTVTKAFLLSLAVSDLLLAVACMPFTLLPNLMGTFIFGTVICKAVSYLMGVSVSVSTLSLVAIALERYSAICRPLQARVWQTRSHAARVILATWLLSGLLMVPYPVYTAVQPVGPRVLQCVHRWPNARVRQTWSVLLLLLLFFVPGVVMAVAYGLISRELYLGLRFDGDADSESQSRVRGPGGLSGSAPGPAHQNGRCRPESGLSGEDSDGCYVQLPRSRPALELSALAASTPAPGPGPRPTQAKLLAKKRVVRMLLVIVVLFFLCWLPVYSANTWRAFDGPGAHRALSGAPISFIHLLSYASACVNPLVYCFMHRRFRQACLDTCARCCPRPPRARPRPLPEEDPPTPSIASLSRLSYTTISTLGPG
Excerpt: as §1, §2, §3, §4

[1] = guinea pig pancreatic membranes, 37° C., 150 min, read-out: IC50 (nM) 125I-BH-CCK-8 Type-A receptor
[2] = guinea pig cortical membranes, 30° C., 150 minutes, read-out: IC50 (nM) 125I-BH-CCK-8 Type-B receptor

| Compound | IC50 (Type-A CCK receptor) [nM] | further results |
| --- | --- | --- |
| CC(C)(C)OC(=O)N[C@@H](Cc1c[nH]c2ccccc12)C(=O)N[C@@H](CCCCNC(=O)CCc1ccc(O)cc1)C(=O)N[C@@H](CC(=O)O)C(=O)N[C@@H](Cc1ccccc1)C(N)=O [Example 1, t-BOC-Trp-Lys(ε-N-(3-(4-hydroxyphenyl)propionyl))-Asp-PheNH2] (Boc-WK(Desaminotyrosyl)DF-NH2) | 124 | – |
| CC(C)(C)OC(=O)N[C@@H](Cc1c[nH]c2ccccc12)C(=O)N[C@@H](CCCCNC(=O)C=Cc1cccc(O)c1)C(=O)N[C@@H](CC(=O)O)C(=O)N[C@@H](Cc1ccccc1)C(N)=O [Example 5, t-BOC-Trp-Lys(ε-N-(3-hydroxycinnamoyl))-Asp-PheNH2] (Boc-WK(X21)DF-NH2) | 37 | – |
| Cc1ccc(/C=C/C(=O)NCCCC[C@H](NC(=O)[C@H](Cc2c[nH]c3ccccc23)NC(=O)OC(C)(C)C)C(=O)N[C@@H](CC(=O)O)C(=O)N[C@@H](Cc2ccccc2)C(N)=O)cc1 [Example 6, t-BOC-Trp-Lys(ε-N-(4-methylcinnamoyl))-Asp-PheNH2] (Boc-WK(X7)DF-NH2) | 71 | – |
| CC(C)(C)OC(=O)N[C@@H](Cc1c[nH]c2ccccc12)C(=O)N[C@@H](CCCCNC(=O)C=Cc1ccc(F)cc1)C(=O)N[C@@H](CC(=O)O)C(=O)N[C@@H](Cc1ccccc1)C(N)=O [Example 7, t-BOC-Trp-Lys(ε-N-(4-fluorocinnamoyl))-Asp-PheNH2] (Boc-WK(X13)DF-NH2) | 65 | – |
| CC(C)(C)OC(=O)N[C@@H](Cc1c[nH]c2ccccc12)C(=O)N[C@@H](CCCCNC(=O)C=Cc1ccc(O)c(O)c1)C(=O)N[C@@H](CC(=O)O)C(=O)N[C@@H](Cc1ccccc1)C(N)=O [Example 14, t-BOC-Trp-Lys(ε-N-(3,4-dihydroxycinnamoyl))-Asp-PheNH2] (Boc-WK(X8)DF-NH2) | 33 | – |
| CC(C)(C)OC(=O)N[C@@H](Cc1c[nH]c2ccccc12)C(=O)N[C@@H](CCCCNC(=O)C=Cc1ccc(Cl)c(Cl)c1)C(=O)N[C@@H](CC(=O)O)C(=O)N[C@@H](Cc1ccccc1)C(N)=O [Example 15, t-BOC-Trp-Lys(ε-N-(3,4-dichlorocinnamoyl))-Asp-PheNH2] (Boc-WK(X11)DF-NH2) | 65 | – |
| CN(C(=O)[C@H](CC(=O)O)NC(=O)[C@H](CCCCNC(=O)C=Cc1ccc(O)cc1)NC(=O)[C@H](Cc1c[nH]c2ccccc12)NC(=O)OC(C)(C)C)[C@@H](Cc1ccccc1)C(N)=O [Example 17, t-BOC-Trp-Lys(ε-N-(4-hydroxycinnamoyl))-Asp-(NMe)PheNH2] (Boc-WK(X1)D[NMeF]-NH2) | – | IC50 (Type-A CCK receptor; [1]): 7 nM |
| CN(C(=O)[C@H](CC(=O)O)NC(=O)[C@H](CCCCNC(=O)/C=C/c1ccc(Cl)cc1)NC(=O)[C@H](Cc1c[nH]c2ccccc12)NC(=O)OC(C)(C)C)[C@@H](Cc1ccccc1)C(N)=O [Example 18, t-BOC-Trp-Lys(ε-N-(4-chlorocinnamoyl))-Asp-(NMe)PheNH2] (Boc-WK(X18)D[NMeF]-NH2) | 22 | – |
| CN(C(=O)[C@H](CC(=O)O)NC(=O)[C@H](CCCCNC(=O)c1ccc2cc(O)ccc2c1)NC(=O)[C@H](Cc1c[nH]c2ccccc12)NC(=O)OC(C)(C)C)[C@@H](Cc1ccccc1)C(N)=O [Example 19, t-BOC-Trp-Lys(ε-N-(6-hydroxy-β-naphthoyl))-Asp-(NMe)PheNH2] (Boc-WK(2Naphthoyl(6-OH))D[NMeF]-NH2) | – | IC50 (Type-B CCK receptor; [2]): 730 nM |
| CC(C)(C)OC(=O)N[C@@H](Cc1c[nH]c2ccccc12)C(=O)N[C@@H](CCCCNC(=O)Nc1cccc2ccccc12)C(=O)N[C@@H](CC(=O)O)C(=O)N[C@@H](Cc1ccccc1)C(N)=O [Example 28, t-BOC-Trp-Lys(ε-N-(α-naphthyl)aminocarbonyl)-Asp-PheNH2] (Boc-WK([CO-NH(1-naphthyl)])DF-NH2) | – | IC50 (Type-B CCK receptor): 10000 nM |
| CC(C)(C)OC(=O)N[C@@H](Cc1c[nH]c2ccccc12)C(=O)N[C@@H](CCCCNC(=O)Nc1ccccc1)C(=O)N[C@@H](CC(=O)O)C(=O)N[C@@H](Cc1ccccc1)C(N)=O [Example 29, t-BOC-Trp-Lys(ε-N-(phenylaminocarbonyl))-Asp-PheNH2] (Boc-WK([CO-NHPh])DF-NH2) | – | IC50 (Type-B CCK receptor; [2]): 1100 nM |
| CC(C)(C)NC(=O)NCCCC[C@H](NC(=O)[C@H](Cc1c[nH]c2ccccc12)NC(=O)OC(C)(C)C)C(=O)N[C@@H](CC(=O)O)C(=O)N[C@@H](Cc1ccccc1)C(N)=O [Example 32, t-BOC-Trp-Lys(ε-N-(t-butylaminocarbonyl))-Asp-PheNH2] (Boc-WK([CO-NHtBu])DF-NH2) | – | IC50 (Type-B CCK receptor; [2]): 5600 nM |
| CC(C)(C)OC(=O)N[C@@H](Cc1c[nH]c2ccccc12)C(=O)N[C@@H](CCCCNC(=O)Nc1ccccc1[N+](=O)[O-])C(=O)N[C@@H](CC(=O)O)C(=O)N[C@@H](Cc1ccccc1)C(N)=O [Example 34, t-BOC-Trp-Lys(ε-N-(2-nitrophenyl)aminocarbonyl)-Asp-PheNH2] (Boc-WK([CO-X14])DF-NH2) | 23 | – |
| CC(C)(C)OC(=O)N[C@@H](Cc1c[nH]c2ccccc12)C(=O)N[C@@H](CCCCNC(=O)Nc1ccccc1Br)C(=O)N[C@@H](CC(=O)O)C(=O)N[C@@H](Cc1ccccc1)C(N)=O [Example 36, t-BOC-Trp-Lys(ε-N-(2-bromophenyl)aminocarbonyl)-Asp-PheNH2] (Boc-WK([CO-X19])DF-NH2) | 7 | – |
| CC(C)(C)OC(=O)N[C@@H](Cc1c[nH]c2ccccc12)C(=O)N[C@@H](CCCC/N=C(\S)Nc1ccccc1Cl)C(=O)N[C@@H](CC(=O)O)C(=O)N[C@@H](Cc1ccccc1)C(N)=O [Example 37, t-BOC-Trp-Lys(ε-N-(2-chlorophenyl)aminothiocarbonyl)-Asp-PheNH2] | – | IC50 (Type-B CCK receptor; [2]): 2900 nM |
| Cc1ccccc1/N=C(/S)NCCCC[C@H](NC(=O)[C@H](Cc1c[nH]c2ccccc12)NC(=O)OC(C)(C)C)C(=O)N[C@@H](CC(=O)O)C(=O)N[C@@H](Cc1ccccc1)C(N)=O [Example 38, t-BOC-Trp-Lys(ε-N-(2-methylphenyl)aminothiocarbonyl)-Asp-PheNH2] | 230 | – |
| CC(C)c1ccccc1NC(=O)NCCCC[C@H](NC(=O)[C@H](Cc1c[nH]c2ccccc12)NC(=O)OC(C)(C)C)C(=O)N[C@@H](CC(=O)O)C(=O)N[C@@H](Cc1ccccc1)C(N)=O [Example 41, t-BOC-Trp-Lys(ε-N-(2-isopropylphenyl)aminocarbonyl)-Asp-PheNH2] (Boc-WK([CO-X24])DF-NH2) | – | IC50 (Type-B CCK receptor; [2]): 5700 nM |
| COc1ccccc1NC(=O)NCCCC[C@H](NC(=O)[C@H](Cc1c[nH]c2ccccc12)NC(=O)OC(C)(C)C)C(=O)N[C@@H](CC(=O)O)C(=O)N[C@@H](Cc1ccccc1)C(N)=O [Example 43, t-BOC-Trp-Lys(ε-N-(2-methoxyphenyl)aminocarbonyl)-Asp-PheNH2] (Boc-WK([CO-X16])DF-NH2) | – | IC50 (Type-A CCK receptor; [1]): 23 nM |
| Cc1ccccc1NC(=O)NCCCC[C@H](NC(=O)[C@H](Cc1c[nH]c2ccccc12)NC(=O)OC(C)(C)C)C(=O)N(C)[C@@H](CC(=O)O)C(=O)N[C@@H](Cc1ccccc1)C(N)=O [Example 60, t-BOC-Trp-Lys(ε-N-(2-methylphenyl)aminocarbonyl)-(NMe)Asp-PheNH2] (Boc-WK([CO-NH(2-Me-phenyl)])[NMeD]F-NH2) | 4.3 | – |
